Data taken from ChEMBL document CHEMBL1131675, “A new anti-tubulin agent containing the benzo[b]thiophene ring system” (1999).

Columns and labels:
[1] = system: P388; experiment: Inhibition of murine P388 lymphocytic leukemia cell proliferation; type: functional; settings: Mus musculus, read-out: ED50 (the source's name)
[2] = target: Tubulin alpha chain (Sus scrofa) (UniProt P02550); experiment: Percentage control on Tubulin- Dependent GTP hydrolysis was evaluated at 50 micro M concentration; type: functional; design: scale not given: the % may be the effect or the level left
Chain of Tubulin alpha chain (Sus scrofa) (P02550 whole entry, looked up): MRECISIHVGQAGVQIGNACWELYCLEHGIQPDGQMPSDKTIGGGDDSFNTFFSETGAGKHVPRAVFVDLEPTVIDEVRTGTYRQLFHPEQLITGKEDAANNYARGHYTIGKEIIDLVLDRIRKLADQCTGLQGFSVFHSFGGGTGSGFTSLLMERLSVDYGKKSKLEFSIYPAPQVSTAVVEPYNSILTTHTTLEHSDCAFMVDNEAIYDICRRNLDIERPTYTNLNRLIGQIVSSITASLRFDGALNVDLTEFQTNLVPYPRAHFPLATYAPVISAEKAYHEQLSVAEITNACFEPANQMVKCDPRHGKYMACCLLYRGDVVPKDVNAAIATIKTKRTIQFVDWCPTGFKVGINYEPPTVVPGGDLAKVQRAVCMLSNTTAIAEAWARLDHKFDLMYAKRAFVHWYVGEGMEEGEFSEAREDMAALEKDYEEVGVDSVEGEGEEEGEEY

[3] = target: Tubulin alpha chain (Sus scrofa) (UniProt P02550); experiment: Percentage control on Tubulin- Dependent GTP hydrolysis was evaluated at 10 micro M concentration; type: functional; design: scale not given: the % may be the effect or the level left
[4] = target: Tubulin alpha chain (Sus scrofa) (UniProt P02550); experiment: Percentage inhibition of [3H]colchicine binding to tubulin was evaluated at 50 uM concentration
[5] = target: Tubulin alpha chain (Sus scrofa) (UniProt P02550); experiment: Percentage control on Tubulin-Dependent GTP hydrolysis was evaluated at 10 uM concentration; type: functional; design: scale not given: the % may be the effect or the level left
[6] = target: Tubulin alpha chain (Sus scrofa) (UniProt P02550); experiment: Percentage control on Tubulin-Dependent GTP hydrolysis was evaluated at 50 uM concentration; type: functional; design: scale not given: the % may be the effect or the level left

| SMILES | EC50 [1] [µg/mL] | Control [2] [%] | Control [3] [%] | other results |
| --- | --- | --- | --- | --- |
| COc1ccc(-c2sc3cc(OC)ccc3c2C(=O)c2cc(OC)c(O)c(OC)c2)cc1 | > 100 |  |  |  |
| COc1ccc(/C=C\c2cc(OC)c(OC)c(OC)c2)cc1O |  | 160 | 161 |  |
| COc1cc([C@@H]2c3cc4c(cc3[C@H](O)[C@H]3COC(=O)[C@H]23)OCO4)cc(OC)c1OC |  | 31 | 43 |  |
| COc1ccc(-c2sc3cc(OC)ccc3c2C(=O)c2c(OC)cccc2OC)cc1 | > 100 |  |  |  |
| COc1ccc(-c2sc3cc(OC)ccc3c2C(=O)c2cc(OC)c(OC)c(OC)c2)cc1 |  |  |  | inhibition [4]: 28%; Control [5]: 122%; Control [6]: 135% |
| COc1ccc(-c2sc3cc(OC)ccc3c2C(=O)c2cc(OC)cc(OC)c2)cc1 | > 100 |  |  |  |
